Measurements published in the NIST ThermoML archive (doi:10.1016/j.jct.2013.02.023).
± gives the expanded uncertainty stated by the source.

Assay: molar heat capacity at constant pressure
Settings: 101.33 kPa, relaxation calorimetry - Quantum Design PPMS

O=P([O-])([O-])OP(=O)([O-])[O-].O=P([O-])([O-])OP(=O)([O-])[O-].O=P([O-])([O-])OP(=O)([O-])[O-].[Fe+3].[Fe+3].[Fe+3].[Fe+3] [iron(III) diphosphate]
molar heat capacity at constant pressure [J/K/mol]
Settings | Crystal 1 | Crystal 2
45.43 K | – | 122.94 ± 2.5
45.64 K | – | 124.36 ± 2.5
45.84 K | – | 125.76 ± 2.5
46.02 K | – | 126.95 ± 2.5
46.22 K | – | 128.47 ± 2.6
46.44 K | – | 130.17 ± 2.6
46.64 K | – | 131.93 ± 2.6
46.84 K | – | 133.84 ± 2.7
47.05 K | – | 135.68 ± 2.7
47.24 K | – | 137.48 ± 2.8
47.38 K | – | 138.74 ± 2.8
47.44 K | – | 139.11 ± 2.8
47.58 K | – | 139.19 ± 2.8
47.6 K | 139.19 ± 3.4 | 139.19 ± 3.3
47.65 K | 138.86 ± 2.9 | –
47.77 K | 136.97 ± 2.8 | –
47.84 K | 134.84 ± 2.8 | –
47.97 K | 130.03 ± 2.7 | –
48.05 K | 126.52 ± 2.6 | –
48.16 K | 121.47 ± 2.5 | –
48.26 K | 116.89 ± 2.4 | –
48.36 K | 112.95 ± 2.3 | –
48.42 K | 110.73 ± 2.3 | –
48.55 K | 107.38 ± 2.2 | –
48.66 K | 105.62 ± 2.2 | –
48.76 K | 103.95 ± 2.1 | –
48.97 K | 102.08 ± 2.1 | –
49.16 K | 101.07 ± 2 | –
49.25 K | 100.78 ± 2 | –
49.37 K | 100.37 ± 2 | –
49.56 K | 99.82 ± 2 | –
49.74 K | 99.5 ± 2 | –
49.76 K | 99.49 ± 2 | –
49.97 K | 99.12 ± 2 | –
50 K | 99.09 ± 2.2 | –
50.16 K | 98.85 ± 2 | –
50.24 K | 98.89 ± 2 | –
50.37 K | 98.71 ± 2 | –
50.75 K | 98.49 ± 2 | –
51.26 K | 98.47 ± 2 | –
51.78 K | 98.62 ± 2 | –
52.26 K | 99.14 ± 2 | –
52.77 K | 99.39 ± 2 | –
53.27 K | 99.87 ± 2 | –
53.79 K | 100.51 ± 2 | –
53.8 K | 100.65 ± 2 | –
54.3 K | 101.12 ± 2 | –
54.8 K | 101.89 ± 2 | –
55 K | 102.2 ± 2.2 | –
55.3 K | 102.66 ± 2 | –
55.82 K | 103.45 ± 2.1 | –
56.32 K | 104.29 ± 2.1 | –
56.83 K | 105.21 ± 2.1 | –
57.33 K | 106.12 ± 2.1 | –
57.82 K | 106.98 ± 2.1 | –
58.35 K | 107.99 ± 2.2 | –
58.86 K | 109.04 ± 2.2 | –
59.33 K | 110.07 ± 2.2 | –
59.86 K | 111.09 ± 2.2 | –
60 K | 111.36 ± 2.5 | –
60.37 K | 112.09 ± 2.2 | –
61.22 K | 114 ± 2.3 | –
62.42 K | 116.32 ± 2.3 | –
63.41 K | 118.45 ± 2.4 | –
64.42 K | 120.61 ± 2.4 | –
65 K | 121.89 ± 2.7 | –
65.42 K | 122.92 ± 2.5 | –
66.42 K | 124.93 ± 2.5 | –
67.44 K | 127.27 ± 2.5 | –
68.45 K | 129.47 ± 2.6 | –
69.47 K | 131.89 ± 2.6 | –
70 K | 133.03 ± 2.9 | –
70.48 K | 134.15 ± 2.7 | –
71.49 K | 136.51 ± 2.7 | –
72.5 K | 138.68 ± 2.8 | –
73.5 K | 141.06 ± 2.8 | –
73.58 K | 141.14 ± 2.8 | –
74.51 K | 143.36 ± 2.9 | –
75 K | 144.64 ± 3.2 | –
75.53 K | 145.73 ± 2.9 | –
76.55 K | 148.3 ± 3 | –
77.56 K | 150.74 ± 3 | –
78.57 K | 153.39 ± 3.1 | –
79.58 K | 155.6 ± 3.1 | –
80 K | 156.55 ± 3.4 | –
80.59 K | 158.26 ± 3.2 | –
81.7 K | 160.54 ± 3.2 | –
85 K | 168.61 ± 3.7 | –
90 K | 180.67 ± 4 | –
90.71 K | 182.62 ± 3.6 | –
95 K | 193.23 ± 4.2 | –
100 K | 205.34 ± 4.5 | –
100.7 K | 205.22 ± 4.1 | –
110 K | 227.92 ± 5 | –
110.85 K | 227.84 ± 4.6 | –
120 K | 248.76 ± 5.5 | –
120.85 K | 248.93 ± 5 | –
130 K | 268.26 ± 5.9 | –
130.93 K | 269.49 ± 5.4 | –
140 K | 286.79 ± 6.3 | –
141.05 K | 288.92 ± 5.8 | –
150 K | 304.56 ± 6.7 | –
151.1 K | 307 ± 6.1 | –
160 K | 321.72 ± 7.1 | –
161.21 K | 324.93 ± 6.5 | –
170 K | 338.34 ± 7.4 | –
171.22 K | 342.32 ± 6.8 | –
180 K | 354.45 ± 7.8 | –
181.32 K | 357.51 ± 7.2 | –
190 K | 370.05 ± 8.1 | –
191.45 K | 374.2 ± 7.5 | –
200 K | 385.13 ± 8.5 | –
201.57 K | 387.79 ± 7.8 | –
210 K | 399.67 ± 8.8 | –
211.7 K | 401.38 ± 8 | –
220 K | 413.65 ± 9.1 | –
221.82 K | 416.43 ± 8.3 | –
230 K | 427.07 ± 9.4 | –
231.97 K | 429 ± 8.6 | –
240 K | 439.91 ± 9.7 | –
242.05 K | 440.09 ± 8.8 | –
250 K | 452.18 ± 9.9 | –
252.07 K | 452.65 ± 9.1 | –
260 K | 463.87 ± 10 | –
262.14 K | 465.23 ± 9.3 | –
270 K | 475 ± 10 | –
272.29 K | 475.97 ± 9.5 | –
273.15 K | 478.39 ± 11 | –
280 K | 485.58 ± 11 | –
282.37 K | 488.57 ± 9.8 | –
290 K | 495.63 ± 11 | –
292.36 K | 498.4 ± 10 | –
298.15 K | 503.44 ± 11 | –
300 K | 505.16 ± 11 | –
302.55 K | 510.46 ± 10 | –
